This note sets out measurements from US12156912B2, “Methods and compositions for inhibiting diseases of the central nervous system” (Board of Regents of the University of Nebraska, priority 2012, dated 2024).

Square brackets hold non-standard residues; d marks the D form. Ends that are not written are not given here. Tyr(3-NO2) = N[C@@H](Cc1ccc(O)c([N+](=O)[O-])c1)C(=O)O

The experiment has as its system splenocytes of mice immunized with N-4YSyn. In words: 3H-thymidine in vitro proliferation assay of splenocytes stimulated with antigen or test peptide. In kind it is cell-based, mice (C57BL/6J). The following applies: splenocytes from N-4YSyn/CFA immunized mice; 30 μg/ml antigen or peptide, 5 days; vs media control; no response in PBS immunized mice. The protocol:
B6 (H-2^b) mice were immunized with PBS or 50 μg of N-4YSyn (nitrated C-terminal 40 amino acid α-Syn fragment) in complete Freund's adjuvant (CFA) administered subcutaneously (s.c.). Seven days after primary immunization, mice were boosted with another 50 μg of antigen emulsified in IFA (Sigma-Aldrich). Seven days following their final immunizations, donor mice were sacrificed and single cell suspensions were prepared from the spleen.
Samples of pooled splenocytes were tested for their proliferative capacity by ^3H-thymidine incorporation after stimulation with either immunizing antigen or test peptide. Splenocytes were plated at a density of 2×10^6 cells/ml complete RPMI tissue culture media (RPMI 1640 supplemented with 10% fetal bovine serum (FBS), 2 mM L-glutamine, 10 mM HEPES, 1 mM sodium pyruvate, 1× nonessential aa, 55 μM 2-mercaptoethanol, 100 U/ml penicillin, and 100 μg/ml streptomycin (Mediatech Inc., Herndon, VA)). Splenocytes from PBS or N-4YSyn immunized mice were stimulated with 0 or 30 μg/ml of immunizing antigen N-4YSyn or 30 μg/ml of the non-nitrated or nitrated peptide indicated, and cultured at 37° C. for 5 days. Cells were pulsed with […] ^3H-thymidine/well for the final 18 hours of culture, harvested onto glass fiber plates, and counted by β-scintillation spectrometry (TopCount, Packard-PerkinElmer Instruments, Wellesley, MA).
To test immune responses to particular epitopes within N-α-Syn, mice were immunized with N-4YSyn or PBS emulsified in complete Freund's adjuvant (CFA). Seven days following the initial immunization, mice were boosted with their respective immunogens emulsified in incomplete Freund's adjuvant (IFA). Seven days later, mice were sacrificed and splencoytes were tested for antigen-specific T cell proliferative responses to N-4YSyn or peptide epitope (nitrated or non-nitrated; Table 1).

“MPVDPGSEAYEMPSE (MPVDPGSEA[Tyr(3-NO2)]EMPSE; listed as Mus musculus) [Peptide 24, murine α-synuclein positions 116-130, nitrated tyrosine]”: the “proliferative response (3H-thymidine incorporation)” value (shortened to “proliferative response”) is “significant proliferative response”.
As for “GILEDMPVDPGSEAY (GILEDMPVDPGSEA[Tyr(3-NO2)]; listed as Mus musculus) [Peptide 23, murine α-synuclein positions 111-125, nitrated tyrosine]”, the “proliferative response” value is “significant proliferative response”.
For the sequence “GSEAYEMPSEEGYQD (GSEA[Tyr(3-NO2)]EMPSEEG[Tyr(3-NO2)]QD; listed as Mus musculus) [Peptide 25, murine α-synuclein positions 121-135, nitrated tyrosines]”, the “proliferative response” value is “significant proliferative response”.
“GYPQEGILEDMPVDP (G[Tyr(3-NO2)]PQEGILEDMPVDP; listed as Mus musculus) [Peptide 22, murine α-synuclein positions 106-120, nitrated tyrosine]”: the “proliferative response” value is listed as “significant proliferative response”.
